In patent publication US12509444B2, “Compounds and methods for CD73 modulation and indications therefor” (Plexxikon Inc., priority 2019, dated 2025):

How the values were obtained:
[1] = molecular target: T1, human CD73 (Homo sapiens, UniProt P21589); test: Inhibitor activity against CD73 in cell based assay (CD73 expressing CHO-K1 cells); conditions: CHO-K1 cells expressing human CD73, 150 μM AMP, 4 hours of incubation; read-out: CHO-K1 CELL VARIANT: CD73 IC50
T1 construct: expressed in transfected cells
T1 sequence (P21589 27-549): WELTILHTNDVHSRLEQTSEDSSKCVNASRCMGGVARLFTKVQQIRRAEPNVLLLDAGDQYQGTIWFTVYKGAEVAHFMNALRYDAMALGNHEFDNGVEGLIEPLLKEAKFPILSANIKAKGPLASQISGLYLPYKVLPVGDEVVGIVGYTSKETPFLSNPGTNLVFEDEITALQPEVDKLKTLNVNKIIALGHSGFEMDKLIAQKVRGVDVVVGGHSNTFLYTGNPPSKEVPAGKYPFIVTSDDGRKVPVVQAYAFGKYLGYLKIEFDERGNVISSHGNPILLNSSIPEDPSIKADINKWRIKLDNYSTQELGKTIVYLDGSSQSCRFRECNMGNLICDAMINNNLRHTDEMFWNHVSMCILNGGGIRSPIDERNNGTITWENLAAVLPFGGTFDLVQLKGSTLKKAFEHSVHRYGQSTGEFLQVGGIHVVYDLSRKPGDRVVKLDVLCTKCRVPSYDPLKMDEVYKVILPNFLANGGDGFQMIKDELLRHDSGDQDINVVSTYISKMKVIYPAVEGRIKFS
Summary of the method: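 Residual supernatant AMP was quantified via CellTiter-Glo luminescence (1 μM ATP added, 30 min, room temperature) after a 4 h exposure of human CD73-expressing CHO-K1 cells to 150 μM AMP plus compound, top final 10 μM, 8 points. IC50 came from nonlinear regression of percent inhibition.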

[2] = molecular target: T2, Human CD73 (amino acid residues 27-549) (Homo sapiens, UniProt P21589); test: CD73 enzymatic assay (luciferase-based indirect assay, CellTiter-Glo); assay type: biochemical; conditions: 0.4 nM CD73, 150 μM AMP, 1 hour at room temperature
T2 construct: Human CD73 (amino acid residues 27-549); His tag (N); made in house; host or cells: E. coli
T2 sequence (P21589 27-549): T1 sequence (P21589 27-549)
Summary of the method: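 Residual AMP inhibits luciferase, so luminescence reports CD73 turnover; read with CellTiter-Glo 2.0 plus 1 μM final ATP, 30 min. Reaction used 0.4 nM N-His CD73 (27-549, E. coli), 150 μM AMP, HEPES pH 7.4 with Tween 20, 1 h at room temperature. IC50 fitted by nonlinear regression.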

SMILES | IC50 [1] | IC50 [2]
CC1(NS(C)(=O)=O)CCC(NC(=O)O[C@@H]2CCN(c3cn[nH]c(=O)c3Cl)C2)CC1 (stereo partly drawn) [P-0358, (R)-1-(5-chloro-6-oxo-1,6-dihydropyridazin-4-yl)pyrrolidin-3-yl (4-methyl-4-(methylsulfonamido)cyclohexyl)carbamate] | 0.001 to 10 µM | 0.001 to 10 µM
O=C(N[C@@H]1CCN(C(=O)c2ccccc2)C1)O[C@@H]1CCN(c2cn[nH]c(=O)c2Cl)C1 [P-0359, (R)-1-(5-chloro-6-oxo-1,6-dihydropyridazin-4-yl)pyrrolidin-3-yl ((R)-1-benzoylpyrrolidin-3-yl)carbamate] | 0.001 to 10 µM | 0.001 to 10 µM
O=C(NC1(C(F)(F)F)CCCC1)O[C@@H]1CCN(c2cn[nH]c(=O)c2Cl)C1 [P-0360, (R)-1-(5-chloro-6-oxo-1,6-dihydropyridazin-4-yl)pyrrolidin-3-yl (1-(trifluoromethyl)cyclopentyl) carbamate] | 0.001 to 10 µM | 0.001 to 10 µM
N#CC1(NC(=O)O[C@@H]2CCN(c3cn[nH]c(=O)c3Cl)C2)CCCC1 [P-0361, (R)-1-(5-chloro-6-oxo-1,6-dihydropyridazin-4-yl)pyrrolidin-3-yl (1-cyanocyclopentyl)carbamate] | 0.001 to 10 µM | 0.001 to 10 µM
O=C(NC1(c2ccc(F)cc2)CC1)O[C@@H]1CCN(c2cn[nH]c(=O)c2Cl)C1 [P-0362, (R)-1-(5-chloro-6-oxo-1,6-dihydropyridazin-4-yl)pyrrolidin-3-yl (1-(4-fluorophenyl)cyclopropyl) carbamate] | 0.001 to 10 µM | 0.001 to 10 µM
C=Cc1c(N2CC[C@@H](OC(=O)NC3CCCC3)C2)cn[nH]c1=O [P-0363, (R)-1-(6-oxo-5-vinyl-1,6-dihydropyridazin-4-yl)pyrrolidin-3-yl cyclopentylcarbamate] | 0.001 to 10 µM | 0.001 to 10 µM
O=C(N[C@H]1CC[C@H](NC(=O)c2ccccc2)C1)O[C@@H]1CCN(c2cn[nH]c(=O)c2Cl)C1 [P-0364, (R)-1-(5-chloro-6-oxo-1,6-dihydropyridazin-4-yl)pyrrolidin-3-yl ((1S,3S)-3-benzamidocyclopentyl) carbamate] | 0.001 to 10 µM | 0.001 to 10 µM
O=C(N[C@H]1CC[C@H](NS(=O)(=O)c2ccccc2F)C1)O[C@@H]1CCN(c2cn[nH]c(=O)c2Cl)C1 [P-0365, (R)-1-(5-chloro-6-oxo-1,6-dihydropyridazin-4-yl)pyrrolidin-3-yl ((1S,3S)-3-((2-fluorophenyl)sulfonamido)cyclopentyl)carbamate] | 0.001 to 10 µM | 0.001 to 10 µM
COc1ccc(S(=O)(=O)C[C@H]2CC[C@H](NC(=O)O[C@@H]3CCN(c4cn[nH]c(=O)c4Cl)C3)CC2)cc1 [P-0366, (R)-1-(5-chloro-6-oxo-1,6-dihydropyridazin-4-yl)pyrrolidin-3-yl ((1r,4R)-4-(((4-methoxyphenyl)sulfonyl)methyl)cyclohexyl)carbamate] | 0.001 to 10 µM | 0.001 to 10 µM
O=C(N[C@@H]1CC[C@H]1C(F)(F)F)O[C@@H]1CCN(c2cn[nH]c(=O)c2Cl)C1 [P-0367, (R)-1-(5-chloro-6-oxo-1,6-dihydropyridazin-4-yl)pyrrolidin-3-yl ((1R,2R)-2-(trifluoromethyl)cyclobutyl) carbamate] | 0.001 to 10 µM | 0.001 to 10 µM
O=C(N[C@H]1C[C@@](O)(C(F)(F)F)C1)O[C@@H]1CCN(c2cn[nH]c(=O)c2Cl)C1 [P-0368, (R)-1-(5-chloro-6-oxo-1,6-dihydropyridazin-4-yl)pyrrolidin-3-yl ((1r,3r)-3-hydroxy-3-(trifluoromethyl)cyclobutyl)carbamate] | 0.001 to 10 µM | 0.001 to 10 µM
O=C(NC1CCN(C(=O)c2ccccc2)CC1)O[C@@H]1CCN(c2cn[nH]c(=O)c2Cl)C1 [P-0369, (R)-1-(5-chloro-6-oxo-1,6-dihydropyridazin-4-yl)pyrrolidin-3-yl (1-benzoylpiperidin-4-yl)carbamate] | 0.001 to 10 µM | 0.001 to 10 µM
O=C(NC1CCN(C(=O)C2CCC2)CC1)O[C@@H]1CCN(c2cn[nH]c(=O)c2Cl)C1 [P-0370, (R)-1-(5-chloro-6-oxo-1,6-dihydropyridazin-4-yl)pyrrolidin-3-yl (1-(cyclobutanecarbonyl)piperidin-4-yl)carbamate] | 0.001 to 10 µM | 0.001 to 10 µM
O=C(NC1CCN(C(=O)c2ccno2)CC1)O[C@@H]1CCN(c2cn[nH]c(=O)c2Cl)C1 [P-0371, (R)-1-(5-chloro-6-oxo-1,6-dihydropyridazin-4-yl)pyrrolidin-3-yl (1-(isoxazole-5-carbonyl)piperidin-4-yl)carbamate] | 0.001 to 10 µM | 0.001 to 10 µM
CC(C)C(=O)N1CCC(NC(=O)O[C@@H]2CCN(c3cn[nH]c(=O)c3Cl)C2)CC1 [P-0372, (R)-1-(5-chloro-6-oxo-1,6-dihydropyridazin-4-yl)pyrrolidin-3-yl (1-isobutyrylpiperidin-4-yl)carbamate] | 0.001 to 10 µM | 0.001 to 10 µM
CC(C)(C)C(=O)N1CCC(NC(=O)O[C@@H]2CCN(c3cn[nH]c(=O)c3Cl)C2)CC1 [P-0373, (R)-1-(5-chloro-6-oxo-1,6-dihydropyridazin-4-yl)pyrrolidin-3-yl (1-pivaloylpiperidin-4-yl)carbamate] | 0.001 to 10 µM | 0.001 to 10 µM
O=C(NC1CCN(C(=O)Cc2ccccc2)CC1)O[C@@H]1CCN(c2cn[nH]c(=O)c2Cl)C1 [P-0374, (R)-1-(5-chloro-6-oxo-1,6-dihydropyridazin-4-yl)pyrrolidin-3-yl (1-(2-phenylacetyl)piperidin-4-yl)carbamate] | 0.001 to 10 µM | 0.001 to 10 µM
CC(C)CC(=O)N1CCC(NC(=O)O[C@@H]2CCN(c3cn[nH]c(=O)c3Cl)C2)CC1 [P-0375, (R)-1-(5-chloro-6-oxo-1,6-dihydropyridazin-4-yl)pyrrolidin-3-yl (1-(3-methylbutanoyl)piperidin-4-yl)carbamate] | 0.001 to 10 µM | 0.001 to 10 µM
CCC(=O)N1CCC(NC(=O)O[C@@H]2CCN(c3cn[nH]c(=O)c3Cl)C2)CC1 [P-0376, (R)-1-(5-chloro-6-oxo-1,6-dihydropyridazin-4-yl)pyrrolidin-3-yl (1-propionylpiperidin-4-yl)carbamate] | 0.001 to 10 µM | 0.001 to 10 µM
O=C(NC1CCN(C(=O)C2CCCC2)CC1)O[C@@H]1CCN(c2cn[nH]c(=O)c2Cl)C1 [P-0377, (R)-1-(5-chloro-6-oxo-1,6-dihydropyridazin-4-yl)pyrrolidin-3-yl (1-(cyclopentanecarbonyl)piperidin-4-yl)carbamate] | 0.001 to 10 µM | 0.001 to 10 µM
CCc1c(N2CC[C@@H](OC(=O)NC3CCC(F)(F)CC3)C2)cn[nH]c1=O [P-0378, (R)-1-(5-ethyl-6-oxo-1,6-dihydropyridazin-4-yl)pyrrolidin-3-yl (4,4-difluorocyclohexyl)carbamate] | 10 to 100 µM | 0.001 to 10 µM
N#C[C@H]1CCC[C@H]1NC(=O)O[C@@H]1CCN(c2cn[nH]c(=O)c2Cl)C1 [P-0379, (R)-1-(5-chloro-6-oxo-1,6-dihydropyridazin-4-yl)pyrrolidin-3-yl ((1R,2S)-2-cyanocyclopentyl)carbamate] | 0.001 to 10 µM | 0.001 to 10 µM
N#C[C@@H]1CCC[C@H]1NC(=O)O[C@@H]1CCN(c2cn[nH]c(=O)c2Cl)C1 [P-0380, (R)-1-(5-chloro-6-oxo-1,6-dihydropyridazin-4-yl)pyrrolidin-3-yl ((1R,2R)-2-cyanocyclopentyl)carbamate] | 0.001 to 10 µM | 0.001 to 10 µM
CC1CCCC1NC(=O)O[C@@H]1CCN(c2cn[nH]c(=O)c2Cl)C1 (stereo partly drawn) [P-0381, (R)-1-(5-chloro-6-oxo-1,6-dihydropyridazin-4-yl)pyrrolidin-3-yl (2-methylcyclopentyl)carbamate] | 0.001 to 10 µM | 0.001 to 10 µM
COC(=O)C12CCC(NC(=O)O[C@@H]3CCN(c4cn[nH]c(=O)c4Cl)C3)(CC1)C2 [P-0382, methyl (R)-4-((((1-(5-chloro-6-oxo-1,6-dihydropyridazin-4-yl)pyrrolidin-3-yl)oxy)carbonyl)amino)bicyclo[2.2.1]heptane-1-carboxylate] | 0.001 to 10 µM | 0.001 to 10 µM
O=C(N[C@H]1CCC[C@H]1C(F)(F)F)O[C@@H]1CCN(c2cn[nH]c(=O)c2Cl)C1 [P-0383, (R)-1-(5-chloro-6-oxo-1,6-dihydropyridazin-4-yl)pyrrolidin-3-yl ((1S,2R)-2-(trifluoromethyl)cyclopentyl) carbamate] | 0.001 to 10 µM | 0.001 to 10 µM
O=C(N[C@@H]1CCC[C@H]1O)O[C@@H]1CCN(c2cn[nH]c(=O)c2Cl)C1 [P-0384, (R)-1-(5-chloro-6-oxo-1,6-dihydropyridazin-4-yl)pyrrolidin-3-yl ((1R,2R)-2-hydroxycyclopentyl)carbamate] | 0.001 to 10 µM | 0.001 to 10 µM
